Experimental data: patent publication US20240109917A1 (ACTELION PHARMACEUTICALS LTD, priority 2020, published 2024)
Read-outs that look alike come from different tables or passages of the source.

Assays:
[1] = biological target: Tb-labeled inactive PDGFRβ (Homo sapiens (Human), UniProt P09619); test: PDGFRβ LanthaScreen Assay; type: binding; settings: read-out: PDGFR Lantha IC50
PDGFRβ = PDGFRβ (Rattus norvegicus (Rat), UniProt Q05030); test: PDGFRβ Cellular Assay (PDGFRb P-Y751 HTRF in A10 cells stimulated with PDGF-BB); type: cell-based
Outline: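 Phospho-Y751 PDGFRβ was measured by HTRF in lysates of A10 rat cells. Cells received compound for 3 hours before PDGF-BB stimulation (100 ng/mL working stock).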

VEGFR2, unphosphorylated = VEGFR2, unphosphorylated (Homo sapiens (Human), UniProt P35968); test: VEGFR ADP GLO Assay; type: biochemical
VEGFR2, unphosphorylated, sequence (P35968 20-1356): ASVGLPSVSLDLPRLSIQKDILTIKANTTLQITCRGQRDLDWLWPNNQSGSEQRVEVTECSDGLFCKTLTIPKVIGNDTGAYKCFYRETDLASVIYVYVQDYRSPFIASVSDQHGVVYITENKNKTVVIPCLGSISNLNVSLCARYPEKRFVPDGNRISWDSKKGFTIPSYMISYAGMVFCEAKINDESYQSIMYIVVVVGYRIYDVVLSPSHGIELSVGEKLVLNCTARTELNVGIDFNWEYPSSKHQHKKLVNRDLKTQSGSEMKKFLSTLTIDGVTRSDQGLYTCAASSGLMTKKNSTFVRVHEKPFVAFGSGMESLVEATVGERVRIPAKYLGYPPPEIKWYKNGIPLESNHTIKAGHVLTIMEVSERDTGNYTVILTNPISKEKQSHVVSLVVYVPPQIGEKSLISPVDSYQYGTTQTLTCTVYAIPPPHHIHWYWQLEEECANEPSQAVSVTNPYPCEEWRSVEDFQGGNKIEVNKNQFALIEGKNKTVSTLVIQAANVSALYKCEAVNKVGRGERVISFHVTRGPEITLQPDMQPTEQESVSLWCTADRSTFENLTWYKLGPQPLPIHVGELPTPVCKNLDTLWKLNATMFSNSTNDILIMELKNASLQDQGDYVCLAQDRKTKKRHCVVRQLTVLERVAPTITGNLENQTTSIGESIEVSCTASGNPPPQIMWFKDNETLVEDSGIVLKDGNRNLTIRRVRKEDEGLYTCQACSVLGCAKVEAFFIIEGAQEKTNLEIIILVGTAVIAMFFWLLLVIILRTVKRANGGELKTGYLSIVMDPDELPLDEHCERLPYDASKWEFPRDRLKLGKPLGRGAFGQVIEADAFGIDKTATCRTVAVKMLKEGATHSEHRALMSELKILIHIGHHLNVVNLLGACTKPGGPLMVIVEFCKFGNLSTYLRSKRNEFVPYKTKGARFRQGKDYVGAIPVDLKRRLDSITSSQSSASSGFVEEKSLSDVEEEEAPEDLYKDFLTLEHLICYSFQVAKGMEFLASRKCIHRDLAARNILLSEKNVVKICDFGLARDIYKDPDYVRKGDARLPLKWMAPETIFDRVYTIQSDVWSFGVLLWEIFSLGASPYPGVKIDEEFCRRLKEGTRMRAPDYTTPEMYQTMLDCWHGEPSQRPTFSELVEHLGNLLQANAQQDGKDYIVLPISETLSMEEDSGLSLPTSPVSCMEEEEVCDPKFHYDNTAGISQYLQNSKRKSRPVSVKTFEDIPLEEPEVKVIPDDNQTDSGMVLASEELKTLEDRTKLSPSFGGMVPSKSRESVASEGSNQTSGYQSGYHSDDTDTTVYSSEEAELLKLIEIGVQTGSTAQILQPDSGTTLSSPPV

Tb-labeled inactive PDGFRβ, sequence (P09619 33-1106): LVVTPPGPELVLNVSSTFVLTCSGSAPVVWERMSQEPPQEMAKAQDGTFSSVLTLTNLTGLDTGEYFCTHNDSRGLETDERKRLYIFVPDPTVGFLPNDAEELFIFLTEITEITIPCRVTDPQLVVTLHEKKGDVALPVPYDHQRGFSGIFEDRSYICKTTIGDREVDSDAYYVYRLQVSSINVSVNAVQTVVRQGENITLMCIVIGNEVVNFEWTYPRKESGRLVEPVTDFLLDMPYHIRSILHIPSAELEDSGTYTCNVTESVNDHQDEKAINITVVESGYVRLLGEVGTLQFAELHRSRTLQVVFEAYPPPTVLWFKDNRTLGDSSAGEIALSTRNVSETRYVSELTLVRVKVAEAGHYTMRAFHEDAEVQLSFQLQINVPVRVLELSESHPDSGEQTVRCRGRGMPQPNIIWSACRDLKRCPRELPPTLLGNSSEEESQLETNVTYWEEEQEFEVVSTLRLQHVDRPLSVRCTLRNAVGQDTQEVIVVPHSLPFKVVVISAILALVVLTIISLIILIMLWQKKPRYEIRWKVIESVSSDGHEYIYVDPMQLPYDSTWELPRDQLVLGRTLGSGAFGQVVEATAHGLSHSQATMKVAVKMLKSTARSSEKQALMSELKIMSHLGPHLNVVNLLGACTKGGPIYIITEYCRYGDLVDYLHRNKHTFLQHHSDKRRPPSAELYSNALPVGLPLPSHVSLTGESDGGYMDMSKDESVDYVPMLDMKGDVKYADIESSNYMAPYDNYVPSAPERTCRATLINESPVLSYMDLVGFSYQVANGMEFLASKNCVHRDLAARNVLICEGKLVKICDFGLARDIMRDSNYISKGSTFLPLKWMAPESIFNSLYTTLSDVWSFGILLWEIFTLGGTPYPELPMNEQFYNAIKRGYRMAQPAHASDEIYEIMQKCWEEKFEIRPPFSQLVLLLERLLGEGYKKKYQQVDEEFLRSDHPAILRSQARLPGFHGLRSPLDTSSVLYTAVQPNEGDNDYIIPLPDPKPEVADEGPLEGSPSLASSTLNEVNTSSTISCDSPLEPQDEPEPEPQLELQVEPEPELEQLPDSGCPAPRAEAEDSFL
PDGFRβ, sequence (Q05030 32-1097): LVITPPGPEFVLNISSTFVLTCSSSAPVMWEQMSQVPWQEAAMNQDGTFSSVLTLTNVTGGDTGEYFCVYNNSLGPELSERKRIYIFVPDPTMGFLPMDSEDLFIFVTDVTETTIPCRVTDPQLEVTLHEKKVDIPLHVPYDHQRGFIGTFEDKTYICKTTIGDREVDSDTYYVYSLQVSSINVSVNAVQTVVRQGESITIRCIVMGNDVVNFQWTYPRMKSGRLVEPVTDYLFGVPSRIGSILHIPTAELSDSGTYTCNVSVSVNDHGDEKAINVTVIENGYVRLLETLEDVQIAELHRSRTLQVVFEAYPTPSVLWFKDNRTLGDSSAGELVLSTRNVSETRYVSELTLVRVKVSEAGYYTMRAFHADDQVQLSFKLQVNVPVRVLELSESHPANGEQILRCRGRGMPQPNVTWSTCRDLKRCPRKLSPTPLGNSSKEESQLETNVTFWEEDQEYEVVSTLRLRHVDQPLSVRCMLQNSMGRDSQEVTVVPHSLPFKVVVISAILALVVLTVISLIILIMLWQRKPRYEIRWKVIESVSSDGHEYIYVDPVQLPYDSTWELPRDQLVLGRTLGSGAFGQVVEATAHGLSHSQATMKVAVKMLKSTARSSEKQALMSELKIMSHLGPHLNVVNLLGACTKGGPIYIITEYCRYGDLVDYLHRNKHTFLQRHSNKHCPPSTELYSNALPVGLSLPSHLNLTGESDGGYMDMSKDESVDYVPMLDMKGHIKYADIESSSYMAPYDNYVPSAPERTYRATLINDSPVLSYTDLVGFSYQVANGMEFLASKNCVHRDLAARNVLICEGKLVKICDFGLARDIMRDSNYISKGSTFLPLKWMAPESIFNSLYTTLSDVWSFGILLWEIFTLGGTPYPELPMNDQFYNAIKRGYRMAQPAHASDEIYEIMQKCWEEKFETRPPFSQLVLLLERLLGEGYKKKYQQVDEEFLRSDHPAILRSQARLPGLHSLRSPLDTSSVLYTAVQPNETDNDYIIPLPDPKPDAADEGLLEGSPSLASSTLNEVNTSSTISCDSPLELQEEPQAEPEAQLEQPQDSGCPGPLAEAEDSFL

Row | SMILES | IC50 [1] | IC50 (PDGFRβ; read-out: PDGFR Cellular IC50) | IC50 (VEGFR2, unphosphorylated) | IC50 (PDGFRβ; PDGFR Cellular IC50)
1 | CCn1nccc1-c1cn2ncc(C(=O)Nc3cc(NC(=O)CN4CC(C)(C)C4)cnc3C)c2s1 [Example 388, N-(5-(2-(3,3-dimethylazetidin-1-yl)acetamido)-2-methylpyridin-3-yl)-2-(1-ethyl-1H-pyrazol-5-yl)pyrazolo[5,1-b]thiazole-7-carboxamide] | 7.4 nM | 5.1 nM | > 7500 nM | 
2 | COc1ncccc1-c1cn2ncc(C(=O)Nc3cc(C(=O)NCCN4CC(C)(C)C4)cnc3C)c2s1 [Example 387, N-(5-((2-(3,3-dimethylazetidin-1-yl)ethyl)carbamoyl)-2-methylpyridin-3-yl)-2-(2-methoxypyridin-3-yl)pyrazolo[5,1-b]thiazole-7-carboxamide] | 1.5 nM | 6.9 nM | > 7500 nM | 
3 | Cc1cnn(C)c1-c1cn2ncc(C(=O)Nc3cc(NC(=O)CN4CC(C)(C)C4)cnc3C)c2s1 [Example 389, 2-(1,4-dimethyl-1H-pyrazol-5-yl)-N-(5-(2-(3,3-dimethylazetidin-1-yl)acetamido)-2-methylpyridin-3-yl)pyrazolo[5,1-b]thiazole-7-carboxamide] | 7.5 nM | 3.1 nM | > 7500 nM | 
4 | Cc1ncc(NC(=O)CN2CCC[C@@H]2C)cc1NC(=O)c1cnn2cc(-c3ccnc(N4CCOCC4)c3)sc12 [Example 352, (S)—N-(2-methyl-5-(2-(2-methylpyrrolidin-1-yl)acetamido)pyridin-3-yl)-2-(2-morpholinopyridin-4-yl)pyrazolo[5,1-b]thiazole-7-carboxamide] | 4.7 nM | 2.8 nM | > 7500 nM | 
5 | COc1cccc(-c2cn3ncc(C(=O)Nc4cc(NC(=O)CN5C[C@H](C)O[C@@H](C)C5)cnc4C)c3s2)n1 (relative stereo) [Example 386, N-(5-(2-(trans-2,6-dimethylmorpholino)acetamido)-2-methylpyridin-3-yl)-2-(6-methoxypyridin-2-yl)pyrazolo[5,1-b]thiazole-7-carboxamide] | 2.5 nM | 3.8 nM | > 833 nM | 
6 | Cc1ncc(NS(=O)(=O)CCN2CC3CCC2CC3)cc1NC(=O)c1cnn2cc(-c3cnn(C)c3)sc12 [Example 358, N-(5-((2-(2-azabicyclo[2.2.2]octan-2-yl)ethyl)sulfonamido)-2-methylpyridin-3-yl)-2-(1-methyl-1H-pyrazol-4-yl)pyrazolo[5,1-b]thiazole-7-carboxamide] | 1840 nM | 941 nM | > 7500 nM | 
7 | Cc1ncc(NC(=O)C[C@H]2CCCN2C(C)C)cc1NC(=O)c1cnn2cc(-c3cnn4c3OCCC4)sc12 [Example 351, (R)-2-(6,7-dihydro-5H-pyrazolo[5,1-b][1,3]oxazin-3-yl)-N-(5-(2-(1-isopropylpyrrolidin-2-yl)acetamido)-2-methylpyridin-3-yl)pyrazolo[5,1-b]thiazole-7-carboxamide] | 3.1 nM |  | > 7500 nM | 17.7 nM
8 | COc1cnccc1-c1cn2ncc(C(=O)Nc3cc(NC(=O)CN4CC(C)(C)C4)cnc3C)c2s1 [Example 399, N-(5-(2-(3,3-dimethylazetidin-1-yl)acetamido)-2-methylpyridin-3-yl)-2-(3-methoxypyridin-4-yl)pyrazolo[5,1-b]thiazole-7-carboxamide] | 1.1 nM | 1.3 nM | 4770 nM | 
9 | Cc1ncc(NC(=O)CN2CCC[C@@H]2C)cc1NC(=O)c1cnn2cc(-c3cnn(C)c3)sc12 [Example 27, (S)-2-(1-methyl-1H-pyrazol-4-yl)-N-(2-methyl-5-(2-(2-methyl-pyrrolidin-1-yl)acetamido)pyridin-3-yl)pyrazolo[5,1-b]thiazole-7-carboxamide] | 16.2 nM | 6.3 nM | > 7500 nM | 
10 | COc1ncccc1-c1cn2ncc(C(=O)Nc3cc(NC(=O)CN4CC5(COC5)C4)cnc3C)c2s1 [Example 404, N-(5-(2-(2-oxa-6-azaspiro[3.3]heptan-6-yl)acetamido)-2-methylpyridin-3-yl)-2-(2-methoxypyridin-3-yl)pyrazolo[5,1-b]thiazole-7-carboxamide] | 4.9 nM | 7.2 nM | > 7500 nM | 
11 | Cc1ncc(NC(=O)CN2CCC3(CC3)C2)cc1NC(=O)c1cnn2cc(-c3cnn(CCO)c3)sc12 [Example 32, N-(5-(2-(5-azaspiro[2.4]heptan-5-yl)acetamido)-2-methylpyridin-3-yl)-2-(1-(2-hydroxyethyl)-1H-pyrazol-4-yl)pyrazolo[5,1-b]thiazole-7-carboxamide] | 5.5 nM | 20.5 nM | > 7500 nM | 
12 | Cc1ncc(NC(=O)CN2CC(C)C2)cc1NC(=O)c1cnn2cc(-c3cnn4c3OCCC4)sc12 [Example 407, 2-(6,7-dihydro-5H-pyrazolo[5,1-b][1,3]oxazin-3-yl)-N-(2-methyl-5-(2-(3-methylazetidin-1-yl)acetamido)pyridin-3-yl)pyrazolo[5,1-b]thiazole-7-carboxamide] | 6.2 nM | 11.9 nM | > 7500 nM | 
13 | COCCn1cc(-c2cn3ncc(C(=O)Nc4cc(NC(=O)CN5CCCCCC5)cnc4C)c3s2)cn1 [Example 339, N-(5-(2-(azepan-1-yl)acetamido)-2-methylpyridin-3-yl)-2-(1-(2-methoxyethyl)-1H-pyrazol-4-yl)pyrazolo[5,1-b]thiazole-7-carboxamide] | 3 nM | 2.6 nM | > 7500 nM | 
14 | COCCn1cc(-c2cn3ncc(C(=O)Nc4cc(NC(=O)CN5CCC(C)(C)C5)cnc4C)c3s2)cn1 [Example 336, N-(5-(2-(3,3-dimethylpyrrolidin-1-yl)acetamido)-2-methylpyridin-3-yl)-2-(1-(2-methoxyethyl)-1H-pyrazol-4-yl)pyrazolo[5,1-b]thiazole-7-carboxamide] | 3.3 nM | 3.1 nM | > 7500 nM | 
15 | COC/C=C/c1cn2ncc(C(=O)Nc3cc(NC(=O)CN4C[C@H](C)O[C@@H](C)C4)cnc3C)c2s1 (relative stereo) [Example 367, N-(5-(2-(trans-2,6-dimethylmorpholino)acetamido)-2-methylpyridin-3-yl)-2-((E)-3-methoxyprop-1-en-1-yl)pyrazolo[5,1-b]thiazole-7-carboxamide] | 17.3 nM |  | > 7500 nM | 18.6 nM
16 | Cc1ncc(NC(=O)CN2C[C@H](C)O[C@@H](C)C2)cc1NC(=O)c1cnn2cc(-c3cc[nH]c3)sc12 [Example 365, N-(5-(2-(2,6-trans-dimethylmorpholino)acetamido)-2-methylpyridin-3-yl)-2-(1H-pyrrol-3-yl)pyrazolo[5,1-b]thiazole-7-carboxamide] | 2.4 nM | 4.8 nM | 596 nM | 
17 | COCCn1cc(-c2cn3ncc(C(=O)Nc4cc(NC(=O)CN5C6CCC5CC6)cnc4C)c3s2)cn1 [Example 340, N-(5-(2-(7-azabicyclo[2.2.1]heptan-7-yl)acetamido)-2-methylpyridin-3-yl)-2-(1-(2-methoxyethyl)-1H-pyrazol-4-yl)pyrazolo[5,1-b]thiazole-7-carboxamide] | 7.5 nM | 6.5 nM | > 7500 nM | 
18 | Cc1ncc(NC(=O)CN2CCC3(CCC3)C2)cc1NC(=O)c1cnn2cc(-c3cnn(CCO)c3)sc12 [Example 30, N-(5-(2-(6-azaspiro[3.4]octan-6-yl)acetamido)-2-methylpyridin-3-yl)-2-(1-(2-hydroxyethyl)-1H-pyrazol-4-yl)pyrazolo[5,1-b]thiazole-7-carboxamide] | 3.3 nM | 16.5 nM | > 7500 nM | 
